Reference: ChEMBL document CHEMBL1201862, “PubChem BioAssay data set” (2004)
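A five-concentration, 48-hour dose response in 96-well plates underlies each endpoint, interpolated linearly between surrounding concentrations. GI50 = concentration required for 50% inhibition of growth.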 Activity calls are given as the source filed them. No stated cut-off is given here; in the data, active = GI50 up to about 1.1 µM and inactive = higher.

Key:
Experiment in all cases: NCI anticancer screen, dose series, 48 h
SF-268 = system: SF-268
UO-31 = system: UO-31
KM-20L2 = system: KM-20L2
OVCAR-5 = system: OVCAR-5
UACC-257 = system: UACC-257
786-0 = system: 786-0
EKVX = system: EKVX
DMS-114 = system: DMS-114
Malme-3M = system: Malme-3M
SR = system: SR
MOLT-4 = system: MOLT-4
KM12 = system: KM12
HT-29 = system: HT-29
HOP-62 = system: HOP-62
LXFL 529 = system: LXFL 529
SN12C = system: SN12C
SK-MEL-28 = system: SK-MEL-28
OVCAR-4 = system: OVCAR-4
HOP-92 = system: HOP-92
SW-620 = system: SW-620
K562 = system: K562
A549 = system: A549
SF-539 = system: SF-539
SF-295 = system: SF-295
LOX IMVI = system: LOX IMVI
XF498 = system: XF498
SK-OV-3 = system: SK-OV-3
UACC-62 = system: UACC-62
IGROV-1 = system: IGROV-1
HL-60 = system: HL-60
HCC 2998 = system: HCC 2998
NCI-H522 = system: NCI-H522
SNB-19 = system: SNB-19
DMS-273 = system: DMS-273
HOP-18 = system: HOP-18
M19-MEL = system: M19-MEL
SK-MEL-5 = system: SK-MEL-5
NCI-H460 = system: NCI-H460
RPMI-8226 = system: RPMI-8226
RXF 393 = system: RXF 393
ACHN = system: ACHN
U-251 = system: U-251
COLO 205 = system: COLO 205
HCT-116 = system: HCT-116
NCI-H23 = system: NCI-H23
HCT-15 = system: HCT-15
SK-MEL-2 = system: SK-MEL-2
OVCAR-8 = system: OVCAR-8
M14 = system: M14
NCI-H226 = system: NCI-H226
SNB-75 = system: SNB-75
TK-10 = system: TK-10
CCRF-CEM = system: CCRF-CEM
DLD-1 = system: DLD-1
OVCAR-3 = system: OVCAR-3
CAKI-1 = system: CAKI-1
A498 = system: A498
SNB-78 = system: SNB-78
RXF 631 = system: RXF 631

Compound: CCOC(=O)C1=C(c2ccccc2)N(C(C)=O)Cc2ccccc21
- GI50 (SF-268): 19 µM (inactive)
- GI50 (UO-31): 18.1 µM (inactive)
- GI50 (KM-20L2): 21.6 µM (inactive)
- GI50 (OVCAR-5): 21.7 µM (inactive)
- GI50 (UACC-257): 16.9 µM (inactive)
- GI50 (786-0): 28.1 µM (inactive)
- GI50 (EKVX): 29.6 µM (inactive)
- GI50 (DMS-114): 10.4 µM (inactive)
- GI50 (Malme-3M): 19.1 µM (inactive)
- GI50 (SR): 9.73 µM (inactive)
- GI50 (MOLT-4): 12 µM (inactive)
- GI50 (KM12): 15 µM (inactive)
- GI50 (HT-29): 16.3 µM (inactive)
- GI50 (HOP-62): 19.6 µM (inactive)
- GI50 (LXFL 529): 22.5 µM (inactive)
- GI50 (SN12C): 21.9 µM (inactive)
- GI50 (SK-MEL-28): 16.8 µM (inactive)
- GI50 (OVCAR-4): 16.7 µM (inactive)
- GI50 (HOP-92): 3.1 µM (inactive)
- GI50 (SW-620): 34.8 µM (inactive)
- GI50 (K562): 14.5 µM (inactive)
- GI50 (A549): 18.4 µM (inactive)
- GI50 (SF-539): 16.3 µM (inactive)
- GI50 (SF-295): 13.9 µM (inactive)
- GI50 (LOX IMVI): 16 µM (inactive)
- GI50 (XF498): 11.9 µM (inactive)
- GI50 (SK-OV-3): 29.9 µM (inactive)
- GI50 (UACC-62): 12.2 µM (inactive)
- GI50 (IGROV-1): 23.6 µM (inactive)
- GI50 (HL-60): 11 µM (inactive)
- GI50 (HCC 2998): 24.7 µM (inactive)
- GI50 (NCI-H522): 16.9 µM (inactive)
- GI50 (SNB-19): 44.6 µM (inactive)
- GI50 (DMS-273): 15.1 µM (inactive)
- GI50 (HOP-18): 28.1 µM (inactive)
- GI50 (M19-MEL): 18.8 µM (inactive)
- GI50 (SK-MEL-5): 12.6 µM (inactive)
- GI50 (NCI-H460): 14.3 µM (inactive)
- GI50 (RPMI-8226): 13.5 µM (inactive)
- GI50 (RXF 393): 19.4 µM (inactive)
- GI50 (ACHN): 16.1 µM (inactive)
- GI50 (U-251): 17.2 µM (inactive)
- GI50 (COLO 205): 15.9 µM (inactive)
- GI50 (HCT-116): 14.5 µM (inactive)
- GI50 (NCI-H23): 12.6 µM (inactive)
- GI50 (HCT-15): 21.4 µM
- GI50 (SK-MEL-2): 17.5 µM (inactive)
- GI50 (OVCAR-8): 21.3 µM (inactive)
- GI50 (M14): 18.5 µM (inactive)
- GI50 (NCI-H226): 14.9 µM (inactive)
- GI50 (SNB-75): 18.6 µM (inactive)
- GI50 (TK-10): 45.3 µM (inactive)
- GI50 (CCRF-CEM): 16.4 µM (inactive)
- GI50 (DLD-1): 28.7 µM (inactive)
- GI50 (OVCAR-3): 18.6 µM (inactive)

Compound: COc1ccc(Nc2nc3cc(C(F)(F)F)ccc3nc2-c2ccccc2)cc1OC
- GI50 (SF-268): 38 µM (inactive)
- GI50 (UO-31): 11.8 µM (inactive)
- GI50 (OVCAR-5): > 100 µM (inactive)
- GI50 (UACC-257): 27.2 µM (inactive)
- GI50 (786-0): 41.8 µM (inactive)
- GI50 (EKVX): 17.3 µM (inactive)
- GI50 (DMS-114): 10.3 µM (inactive)
- GI50 (CAKI-1): 31.5 µM (inactive)
- GI50 (Malme-3M): 21.7 µM (inactive)
- GI50 (SR): 75.9 µM (inactive)
- GI50 (MOLT-4): > 100 µM (inactive)
- GI50 (KM12): > 100 µM (inactive)
- GI50 (HT-29): 46.7 µM (inactive)
- GI50 (HOP-62): 2.74 µM (inactive)
- GI50 (LXFL 529): 49 µM (inactive)
- GI50 (SN12C): 39.7 µM (inactive)
- GI50 (SK-MEL-28): 19.8 µM (inactive)
- GI50 (OVCAR-4): 24 µM (inactive)
- GI50 (HOP-92): 1.16 µM (inactive)
- GI50 (SW-620): 35.5 µM (inactive)
- GI50 (K562): 61 µM (inactive)
- GI50 (A549): 25.9 µM (inactive)
- GI50 (SF-539): 39.5 µM (inactive)
- GI50 (SF-295): 11.3 µM (inactive)
- GI50 (LOX IMVI): 19.8 µM (inactive)
- GI50 (XF498): 1.71 µM (inactive)
- GI50 (SK-OV-3): 15.9 µM (inactive)
- GI50 (UACC-62): 27.4 µM (inactive)
- GI50 (IGROV-1): 24.9 µM (inactive)
- GI50 (HCC 2998): > 100 µM (inactive)
- GI50 (NCI-H522): 30 µM (inactive)
- GI50 (DMS-273): 6.08 µM (inactive)
- GI50 (HOP-18): < 0.01 µM (active)
- GI50 (SK-MEL-5): 20.3 µM (inactive)
- GI50 (NCI-H460): 27.7 µM (inactive)
- GI50 (RXF 393): 11.9 µM (inactive)
- GI50 (ACHN): 30.6 µM (inactive)
- GI50 (A498): 52.1 µM (inactive)
- GI50 (U-251): 30.9 µM (inactive)
- GI50 (COLO 205): 29.3 µM (inactive)
- GI50 (HCT-116): 12.6 µM (inactive)
- GI50 (NCI-H23): 25.7 µM (inactive)
- GI50 (HCT-15): 64.4 µM
- GI50 (SK-MEL-2): 48.9 µM (inactive)
- GI50 (OVCAR-8): 25.8 µM (inactive)
- GI50 (SNB-78): 25.4 µM (inactive)
- GI50 (M14): 38.6 µM (inactive)
- GI50 (NCI-H226): 15.8 µM (inactive)
- GI50 (SNB-75): 28.4 µM (inactive)
- GI50 (TK-10): 15 µM (inactive)
- GI50 (CCRF-CEM): 82.6 µM (inactive)
- GI50 (DLD-1): 21.4 µM (inactive)
- GI50 (OVCAR-3): 18.7 µM (inactive)

Compound: C/C(=N\NC(=O)CC#N)c1c(O)cc(C)oc1=O
- GI50 (SF-268): > 100 µM (inactive)
- GI50 (UO-31): > 100 µM (inactive)
- GI50 (KM-20L2): > 100 µM (inactive)
- GI50 (UACC-257): > 100 µM (inactive)
- GI50 (786-0): > 100 µM (inactive)
- GI50 (EKVX): > 100 µM (inactive)
- GI50 (CAKI-1): > 100 µM (inactive)
- GI50 (Malme-3M): > 100 µM (inactive)
- GI50 (SR): > 100 µM (inactive)
- GI50 (MOLT-4): > 100 µM (inactive)
- GI50 (KM12): > 100 µM (inactive)
- GI50 (HT-29): > 100 µM (inactive)
- GI50 (HOP-62): > 100 µM (inactive)
- GI50 (LXFL 529): > 100 µM (inactive)
- GI50 (SN12C): > 100 µM (inactive)
- GI50 (SK-MEL-28): > 100 µM (inactive)
- GI50 (OVCAR-4): > 100 µM (inactive)
- GI50 (RXF 631): > 100 µM (inactive)
- GI50 (HOP-92): > 100 µM (inactive)
- GI50 (SW-620): > 100 µM (inactive)
- GI50 (K562): > 100 µM (inactive)
- GI50 (A549): > 100 µM (inactive)
- GI50 (SF-539): > 100 µM (inactive)
- GI50 (SF-295): > 100 µM (inactive)
- GI50 (LOX IMVI): > 100 µM (inactive)
- GI50 (SK-OV-3): > 100 µM (inactive)
- GI50 (UACC-62): > 100 µM (inactive)
- GI50 (IGROV-1): > 100 µM (inactive)
- GI50 (HL-60): > 100 µM (inactive)
- GI50 (HCC 2998): > 100 µM (inactive)
- GI50 (SNB-19): > 100 µM (inactive)
- GI50 (HOP-18): > 100 µM (inactive)
- GI50 (M19-MEL): > 100 µM (inactive)
- GI50 (SK-MEL-5): > 100 µM (inactive)
- GI50 (NCI-H460): > 100 µM (inactive)
- GI50 (ACHN): > 100 µM (inactive)
- GI50 (A498): > 100 µM (inactive)
- GI50 (U-251): > 100 µM (inactive)
- GI50 (HCT-116): > 100 µM (inactive)
- GI50 (NCI-H23): > 100 µM (inactive)
- GI50 (HCT-15): > 100 µM
- GI50 (SK-MEL-2): > 100 µM (inactive)
- GI50 (OVCAR-8): > 100 µM (inactive)
- GI50 (SNB-78): > 100 µM (inactive)
- GI50 (M14): > 100 µM (inactive)
- GI50 (NCI-H226): > 100 µM (inactive)
- GI50 (SNB-75): > 100 µM (inactive)
- GI50 (TK-10): > 100 µM (inactive)
- GI50 (CCRF-CEM): > 100 µM (inactive)
- GI50 (DLD-1): > 100 µM (inactive)
